Test system: Mino cells
Assay: Competitive pull-down proteomics with ibrutinib alkyne probe in Mino cells
Type: cell-based, human
Conditions: 1 µM compound 1 h
Method: (10 μM). This was followed by a reaction with biotin-azide using CuAAC, enrichment of the labeled proteins, and their quantification by tryptic digestion and LC/MS/MS analysis.
The samples were then precipitated with methanol: chloroform (1 mL of methanol, 250 μL of chloroform, and 750 μL of water), washed with 1 mL of methanol, and air-dried. The samples were solubilized and bound to streptavidin agarose beads in PBS for 3 h at 25 °C. The beads were washed, centrifuged, and resuspended in Tris 50 mM pH 8 and transferred to a clean Eppendorf tube. After this, the bound proteins were eluted by boiling with 5% SDS then reduced with DTT, alkylated with iodoacetamide, and digested with trypsin. The samples were run on LC/MS/MS. The detailed procedure is available in the Supplementary Information. The mass spectrometry proteomics data have been deposited to the ProteomeXchange Consortium via the PRIDE[67] partner repository with the dataset identifiers PXD038301 and PXD038375.
400 µL of 0.1% IGEPAL/PBS were added, and the beads were washed 3 times with 0.1% IGEPAL/PBS, 3 times PBS and 3 times water. The peptides were eluted by incubation with 200 µL of 50% acetonitrile + 0.1% TFA for 5 min, followed by two more portions of 100 µL of 50% acetonitrile + 0.1% TFA. The samples were dried by speedvac, and further purified using Oasis desalting columns (Waters), after which they were dried and run on the instrument.
Pull-down samples preparation […]
incubation with 10 μM “probe 4” for another hour. The samples were prepared in quadruplicates. The cells were washed with cold PBS, from the flasks and frozen. Then, each sample was lysed in 200 μL of […]
The protein in the supernatant was quantified using BCA. For each sample, 250 μL of 1.7 mg/mL was prepared. At this point, 5 μL of 5 mM biotin azide and 9 μL of 100 mM CuSO4/THPTA complex were added. The click reaction was initiated by the addition of 7.5 μL of 150 mM sodium ascorbate, and the samples are incubated at room temperature for 1 h. The samples were then precipitated with methanol/chloroform (1 mL methanol, 250 μL chloroform, 750 μL water), washed with 1 mL of methanol, and air-dried. […]
and heated to 95 °C for 5 min. The samples were then diluted to 1.5 mL with PBS, and 50 μL of streptavidin agarose beads, prewashed with 0.2% SDS in PBS, was added, followed by 3 h incubation at room temperature. Following the incubation, the beads were centrifuged at 2000g for 2 min and washed four times with the following buffers (4 mL in each wash): 2% SDS; 0.1% sodium deoxycholate, 1% Triton X-100, 0.5 M NaCl, 1 mM EDTA, 50 mM HEPES pH = 7.5; 0.25 M NaCl, 0.5% IGEPAL, 0.5% sodium deoxycholate, 1 mM EDTA, 10 mM Tris pH = 8.1; 50 mM Tris pH = 7.4, 50 mM NaCl. […]
with heating to 95 °C for 6 min and occasional vortexing. Finally, the beads were spun down (2 min 2000g) and 80 μL of supernatant was removed to separate tubes. […]
had cooled, 4 μL of iodoacetamide (0.2 M) were added, and the samples were incubated in the dark for 40 min at room temperature. […]
samples were diluted 6-fold with 90% methanol + 50 mM ammonium bicarbonate. The samples were then […]
loaded on S-trap micro columns (Protify), and the columns were washed three times with 150 μL of 90% methanol + 50 mM ammonium bicarbonate. Then, 20 μL of 0.05 μg/μL of trypsin in 50 mM ammonium bicarbonate was added to the columns and the samples were incubated at 47 °C for 90 min. Then, 40 μL of 50 mM ammonium bicarbonate was added, followed by centrifugation and addition of 1 μL of 0.5 μg/μL trypsin to the eluate, which was incubated at 37 °C overnight. The column itself was then eluted using 40 μL of 0.2% formic acid and 40 μL 0.2% formic acid in 50% acetonitrile into a separate tube, which was kept at 4 °C. The two eluates were then combined and evaporated. The samples were further desalted using […]

Compound: CNS(=O)(=O)OCC(=O)N1CCC[C@@H](n2nc(-c3ccc(Oc4ccccc4)cc3)c3c(N)ncnc32)C1 [3c]
- Log2(Fold Change) (4F2_HUMAN): -0.003946
- Log2(Fold Change) (AATM_HUMAN): 0.8443
- Log2(Fold Change) (ACSF3_HUMAN): -0.02243
- Log2(Fold Change) (AHNK_HUMAN): 0.1794
- Log2(Fold Change) (ALG1_HUMAN): 0.4128
- Log2(Fold Change) (ANXA1_HUMAN): -1.116
- Log2(Fold Change) (APEX1_HUMAN): 0.3544
- Log2(Fold Change) (ARP3_HUMAN;ARP3B_HUMAN;ARP3C_HUMAN): 0.7666
- Log2(Fold Change) (AT1A1_HUMAN;AT1A2_HUMAN;AT1A4_HUMAN;ATP4A_HUMAN;AT12A_HUMAN): 0.2874
- Log2(Fold Change) (ATP5H_HUMAN): 0.2249
- Log2(Fold Change) (ATPK_HUMAN): 0.3336
- Log2(Fold Change) (ATPO_HUMAN): 1.122
- Log2(Fold Change) (ATX10_HUMAN): 1.148
- Log2(Fold Change) (BST2_HUMAN): 1.515
- Log2(Fold Change) (BZW1_HUMAN): 1.5907
- Log2(Fold Change) (C1TM_HUMAN): 0.2312
- Log2(Fold Change) (CALL5_HUMAN): -0.3562
- Log2(Fold Change) (CD20_HUMAN): 0.973
- Log2(Fold Change) (CD38_HUMAN): 0.2424
- Log2(Fold Change) (CLCA_HUMAN): 0.2558
- Log2(Fold Change) (CLH1_HUMAN;CLH2_HUMAN): -0.3445
- Log2(Fold Change) (COX2_HUMAN): 0.13
- Log2(Fold Change) (CRERF_HUMAN): -0.08019
- Log2(Fold Change) (DD19B_HUMAN;DD19A_HUMAN): 0.602
- Log2(Fold Change) (DDX3X_HUMAN;DDX3Y_HUMAN;DDX4_HUMAN): 0.1847
- Log2(Fold Change) (DNJC7_HUMAN): -0.02484
- Log2(Fold Change) (DSC1_HUMAN): -0.8463
- Log2(Fold Change) (EF1B_HUMAN): -0.1869
- Log2(Fold Change) (EPIPL_HUMAN): -1.263
- Log2(Fold Change) (FPPS_HUMAN): -0.1485
- Log2(Fold Change) (GCR_HUMAN): -0.05313
- Log2(Fold Change) (GLYM_HUMAN;GLYC_HUMAN): 0.5085
- Log2(Fold Change) (GSDMA_HUMAN): -0.7475
- Log2(Fold Change) (HMCS1_HUMAN): 0.08713
- Log2(Fold Change) (HXK2_HUMAN;HXK3_HUMAN): 0.7187
- Log2(Fold Change) (IF4A1_HUMAN): -0.255
- Log2(Fold Change) (IF4A3_HUMAN): 1.002
- Log2(Fold Change) (IF4H_HUMAN): 0.7933
- Log2(Fold Change) (IGLL5_HUMAN;IGL1_HUMAN;IGLC1_HUMAN): -1.242
- Log2(Fold Change) (LAPM5_HUMAN): 0.4417
- Log2(Fold Change) (LAT1_HUMAN): -0.2915
- Log2(Fold Change) (LMNA_HUMAN): 0.31
- Log2(Fold Change) (MATR3_HUMAN): 0.6026
- Log2(Fold Change) (MBB1A_HUMAN): 0.2625
- Log2(Fold Change) (MCCA_HUMAN): -0.03232
- Log2(Fold Change) (MIC19_HUMAN): -0.1615
- Log2(Fold Change) (MP2K7_HUMAN): 1.332
- Log2(Fold Change) (NCEH1_HUMAN): 0.9366
- Log2(Fold Change) (NT5D1_HUMAN): 0.9214
- Log2(Fold Change) (NUCL_HUMAN): 0.1005
- Log2(Fold Change) (OTUB1_HUMAN): -0.08587
- Log2(Fold Change) (P121C_HUMAN;P121A_HUMAN): 0.1409
- Log2(Fold Change) (PARK7_HUMAN): 0.4175
- Log2(Fold Change) (PCKGM_HUMAN): -0.3825
- Log2(Fold Change) (PEBP1_HUMAN): 0.1182
- Log2(Fold Change) (PEPL_HUMAN): -0.4806
- Log2(Fold Change) (PFKAL_HUMAN): -0.8784
- Log2(Fold Change) (PGK1_HUMAN;PGK2_HUMAN): 0.09163
- Log2(Fold Change) (PIP_HUMAN): -1.053
- Log2(Fold Change) (PLAK_HUMAN;CTNB1_HUMAN): -0.3765
- Log2(Fold Change) (POF1B_HUMAN): -0.7349
- Log2(Fold Change) (PSA3_HUMAN): 0.7265
- Log2(Fold Change) (PSB8_HUMAN): 0.6836
- Log2(Fold Change) (RAB1A_HUMAN;RAB1B_HUMAN;RAB1C_HUMAN): 0.7505
- Log2(Fold Change) (RANG_HUMAN;IPKB_HUMAN): -0.3363
- Log2(Fold Change) (RAP1B_HUMAN;RAP1A_HUMAN;RP1BL_HUMAN;RAB3D_HUMAN): -0.2646
- Log2(Fold Change) (RFTN1_HUMAN): 0.04464
- Log2(Fold Change) (RL13A_HUMAN;R13P3_HUMAN): 0.8429
- Log2(Fold Change) (RL18_HUMAN): 0.1972
- Log2(Fold Change) (RLA1_HUMAN): -0.4322
- Log2(Fold Change) (RN3P2_HUMAN): -0.1916
- Log2(Fold Change) (RS28_HUMAN): 1.548
- Log2(Fold Change) (RTN4_HUMAN): 0.4072
- Log2(Fold Change) (RUVB2_HUMAN): 0.8939
- Log2(Fold Change) (S38A1_HUMAN): 1.036
- Log2(Fold Change) (S61A1_HUMAN;S61A2_HUMAN): 1.044
- Log2(Fold Change) (SAE2_HUMAN): 0.8904
- Log2(Fold Change) (SATT_HUMAN): 0.02917
- Log2(Fold Change) (SCRB1_HUMAN): 0.4543
- Log2(Fold Change) (SIAT1_HUMAN): 1.583
- Log2(Fold Change) (SO4A1_HUMAN): 1.603
- Log2(Fold Change) (SPB4_HUMAN): 1.011
- Log2(Fold Change) (SPB12_HUMAN): 0.1706
- Log2(Fold Change) (SSDH_HUMAN): 0.9154
- Log2(Fold Change) (SUCB1_HUMAN): 0.5342
- Log2(Fold Change) (TAP1_HUMAN): -1.372
- Log2(Fold Change) (TAP2_HUMAN;ABCB8_HUMAN;ABCBA_HUMAN): -0.08664
- Log2(Fold Change) (TBB2B_HUMAN;TBB2A_HUMAN): -0.7631
- Log2(Fold Change) (TSN_HUMAN): 0.3727
- Log2(Fold Change) (TX264_HUMAN): 0.3312
- Log2(Fold Change) (UB2V2_HUMAN;UB2V1_HUMAN): 1.079
- Log2(Fold Change) (UBP5_HUMAN): -0.3855
- Log2(Fold Change) (UBP14_HUMAN): 1.084
- Log2(Fold Change) (URP2_HUMAN): 1.649
- Log2(Fold Change) (USMG5_HUMAN): 0.5625
- Log2(Fold Change) (VDAC1_HUMAN): 0.3406
- Log2(Fold Change) (VEZA_HUMAN): 1.904
- Log2(Fold Change) (XPO2_HUMAN): 0.4199
- Log2(Fold Change) (XPO5_HUMAN): -0.04737
- Log2(Fold Change) (ZDHC8_HUMAN): -1.5861

Reference: article PMC9936582, “Sulfamate Acetamides as Self-Immolative Electrophiles for Covalent Ligand-Directed Release Chemistry” (Journal of the American Chemical Society, 2023)
